According to US4080467A, “Pharmaceutical compositions comprising 1,3-dithiolan-2-ylidene malonate derivatives” (Nihon Nohyaku Co., Ltd., priority 1976, dated 1978):

Key:
[1] = system: Acute Liver Damage associated with Centrilobular Necrosis (carbon tetrachloride); experiment: Protective effect on acute liver damage associated with centrilobular necrosis (carbon tetrachloride model); assay type: in vivo, mice (four-week-old male, dd strain); conditions: 250 mg/kg oral 6 h before CCl4, average of 5 to 6 mice; for p-GPT (plasma glutamic-pyruvic transaminase activity): 24 h after CCl4, values over 1,000 regarded as 1,000; for Liver Damage Index: 0 normal, 2 slightly recognized, 4 clearly observable damage, 6 heavy damage
Source text: Carbon tetrachloride (CCl4) administration induces centrilobular necrosis of the liver associated with loss of diphosphopyridine nucleotide, hepatic glycogen, coenzyme A and increase in neutral fat. Release of several enzymes from the hepatocytes, and increases of enzyme activities in the plasma are recognized as the result of the damage of the liver. A suitable means for evaluating the degree of damage induced by CCl4 or the degree of protection afforded by drugs is to study the plasma glutamic-pyruvic transaminase (p-GPT) activity.
Method: The test compounds were dissolved or suspended in olive oil and administered orally at the dose of 250 mg/kg to the mice (Four-week-old male mice-dd strain). After 6 hours, CCl4 was administered orally (0.05 ml/kg as olive oil solution). Animals were killed 24 hours after CCl4 administration, and the liver was grossly observed. The plasma was obtained by centrifugation. Activities of p-GPT were determined by the method of Reitman and Frankel and expressed in Karmen units.
Score for liver damage was as follows: […]
4 Clearly observable damage
Each figure indicates average of 5 to 6 mice. Values of p-GPT over 1,000 Karmen unit regarded as 1,000 for calculation of average for convenience.

[2] = system: Chronic Liver Damage (thioacetamide); experiment: Therapeutic effect on chronic liver damage (thioacetamide model), BSP test; assay type: in vivo, rats (Sprague Dawley strain); conditions: 12 times TAA 100 mg/kg, then diet + 0.2% compound
Experimental: In the tests of this Example, TAA was repeatedly administered to animals to prepare test animals suffering from somewhat chronic liver damages, and then the present compounds were administered thereto to know whether or not the compounds were effective against chronic hepatitis.
The degree of the liver damage and the therapeutic effects of the compounds were evaluated according to BSP test. The BSP test is a method in which BSP (sulfobromophthalein sodium), a dye known to be quickly metabolized in and excreted from the liver, is intravenously injected into animals and, after a definite period of time, the blood is taken out to measure the amount of BSP remaining in the plasma. In case the animals are suffering from the liver damage, the dye will remain, according to the degree of the damage, at the stage where a major portion of BSP is metabolized and excreted in the case of normal animals.
Five groups of rats (Sprague Dawley strain) were treated as follows:
Group A: The rats were orally administered with 100 mg/kg of thioacetamide,at 3 days intervals for 36 days (12 times of the administration), then were submitted for 10 days to a normal diet.
Group B: The rats were orally administered with 100 mg/kg of thioacetamide at 3 days intervals for 36 days (12 times of the administration), then were submitted for 10 days to the normal diet + 0.2% of compound 4.
Group C: The rats were orally administered with 100 mg/kg of thioacetamide at 3 days intervals for 36 days (12 times of the administration) then were submitted for 10 days to the normal diet + 0.2% of compound 2.
Group D: The rats were orally administered with 100 mg/kg of thioacetamide at 3 days intervals for 36 days (12 times of the administration) then were submitted for 10 days to the normal diet + 0.2% of anethol trithion.
Group E: The rats were submitted to the normal diet as the control.
Five rats were sacrified from each group at appropriate intervals for BSP (sulfobromophthalein) test, the results of which were shown as amounts (mg) of BSP remaining in 1 dl of plasma.

[3] = system: acute liver damage associated with discrete lobular necrosis (D-galactosamine); experiment: Protective effect on acute hepatitis with mesenchymal reaction and discrete lobular necrosis (D-galactosamine model); assay type: in vivo, male rat (SD strain); conditions: 100 mg/kg oral 6 h before D-galactosamine
Experimental: D-Galactosamine is a compound which induces a discrete lobular necrosis associated with mesenchymal reaction similar to the change observed in human viral hepatitis, so that it is frequently used in producing a model for viral hepatitis.
The compound of this invention or anethol trithion was administered orally to the male rat (SD strain) at the dose of 100 mg/kg. Six hours after it, D-galacetosamine was intraperitoneally administered at the dose of 600 mg/kg. Four hours after it, an additional 300 mg/kg was administered intraperitoneally. Eight hours after it, the animals were sacrificed to collect the blood samples. P-GPT activity and triglyceride in the liver were measured to evaluate the effect of the compound of this invention.

[4] = system: bile flow and biliary salt; experiment: Cholagogic action: bile flow and excretion of biliary salt; assay type: in vivo, male rat (4 week-aged, SD-JCL strain); conditions: 200 mg/kg oral; for bile flow / excretion of biliary salt: before treatment = 100
Experimental: The male rat (4 week-aged, SD-JCL strain) was anesthetized with sodium pentobarbital (37.5 mg/kg, intraperitoneal injection). The abdominal cavity was opened through a midline incision. The common bile duct was catheterized with polyethylene tube o.d. 0.8 mm. The catheter was brought to the outside through the abdominal incision wound prior to closing. Bile was collected from the catheter continuously with time intervals of one hour. The quantity of bile produced in one hour was determined by weighing and that of biliary salt was determined by enzymatic method (Ikagaku Jikkenho Koza 1B, Biological Constituents II, edited by Tamio YAMAKAWA). The amount of biliary salts was represented as cholic acid equivalent.
In the representation of the results, the quantities of bile and biliary salts produced in one hour prior to the administration of drug were taken as 100. The compound of this invention was orally administered at the dose of 200 mg/kg. As reference anethol trithion was used.

[5] = Effect on concentration of ethyl alcohol in the blood; assay type: in vivo, mice; conditions: 250 mg/kg oral 6 h before ethyl alcohol 1,000 mg/kg
Experimental: The test compounds are dissolved or suspended in olive oil and administered orally at the dose of 250 mg/kg to the mice. After 6 hours, 1,000 mg/kg of ethyl alcohol was given orally. Blood was taken in a capillary from caudal vein at the time indicated in the results. The plasma was obtained by centrifugation. The concentration of ethyl alcohol in the plasma was measured by FID type gas liquid chromatography. Five mice were used for each group.

in vivo = conditions: mouse, po
[6] = system: fatty liver (carbon tetrachloride); experiment: Therapeutic effect on fatty liver (carbon tetrachloride model); assay type: in vivo, male rat (35 week-old, SD strain)
Experimental: Carbon tetrachloride also induces fatty liver, but the picture of disease differs from the case of ethionine-induced fatty liver. Carbon tetrachloride is generally considered to damage microsome and thereby to inhibit protein synthesis and induce fatty liver.
Carbon tetrachloride was subscutaneously administered to 35 week-old male rat (SD strain) for 4 days at the dose of 1 ml/kg. The treated animals were left for 3 days after the last administration to maximize the manifestation of fatty liver.
Administration of the compounds of this invention was commenced on the fourth day after the administration of carbon tetrachloride was completed. It was orally given everyday for 10 days at the dose of 50 or 250 mg/kg. On the 11th day, the animals were sacrificed. The therapeutic effect was evaluated by determining the content of lipid in the liver (triglyceride and total lipid) and examining the histopathological changes. Triglyceride and total lipid were determined colorimetrically by chromotropic acid method and Bragdon's oxidation method, respectively.
Indices for the histopathological change is as follows.

fatty liver (ethionine) = experiment: Effect on fatty liver (ethionine model); assay type: in vivo, male mice (4 week-old, dd-strain); conditions: diet plus 0.2% ethionine and 0.2% compound, 5 days
Source text: There are known many factors inducing fatty liver. But, the fatty liver is grouped into a couple of patterns from the mechanism of lipid accumulation or metabolism of lipoprotein in the liver. Ethionine is a typical compound inducing fatty liver. It inhibits RNA and protein syntheses and destructs polysome of the liver cell. Fatty liver is induced by the inhibition of protein synthesis and the disturbance of lipoprotein secretion.
Usually, fatty liver is closely related to the accumulation of triglyceride in the liver. In the present example, the degree of fatty liver and protective or therapeutic effect against the fatty liver was evaluted by measurement of triglyceride content in the liver.
The animals used in the test were 4 week-old male mice (dd-strain).
The mice were submitted for 5 days to a normal diet (control), to the normal diet plus 0.2% ethionine (positive control), to the normal diet plus 0.2% ethionine and 0.2% of the compound of this invention, or to the normal diet plus 0.2% ethionine and 0.2% methionine which was the referential diet. At the end of the period of 5 days, content of triglyceride in the liver was studied colorimetrically by chromotropic acid method and the result was represented as triolein content (mg/g-liver).

[7] = 50 mg/kg oral everyday for 10 days
[8] = 250 mg/kg oral everyday for 10 days

Compound | p-GPT (plasma glutamic-pyruvic transaminase activity) [1] | Liver Damage Index [1] | Concentration of Ethyl alcohol in Plasma ([5]; 0 min) | Concentration of Ethyl alcohol in Plasma ([5]; 5 min) | Concentration of Ethyl alcohol in Plasma ([5]; 15 min) | Concentration of Ethyl alcohol in Plasma ([5]; 30 min) | Concentration of Ethyl alcohol in Plasma ([5]; 60 min) | LD50 (in vivo) | Triglyceride (content in the liver, as triolein) (fatty liver (ethionine)) | other results
CCOC(=O)C(C(=O)OCC)=C1SCCS1 [Compound 2, Diethyl 1,3-dithiolan-2-ylidene malonate] | 47 Karmen units | 0.8 | 8±3 ppm | 712±75 ppm | 65±98 ppm | 422±100 ppm | 15±8 ppm | 1110 mg/kg | – | Concentration of BSP in plasma ([2]; 2 Days): 9.8 ± 3.1 mg/dL; Concentration of BSP in plasma ([2]; 5 Days): 4.7 ± 0.8 mg/dL; Concentration of BSP in plasma ([2]; 10 Days): 0.8 ± 0.2 mg/dL; Triglyceride in liver [3]: 7.2 ± 1.5 mg/g; p-GPT [3]: 68±32 Karmen unit; bile flow ([4]; 1 hour after treatment): 108±3.8; excretion of biliary salt ([4]; 1 hour after treatment): 108±18; bile flow ([4]; 2 hours after treatment): 116±6.2; excretion of biliary salt ([4]; 2 hours after treatment): 120±12; bile flow ([4]; 3 hours after treatment): 109±8.3; excretion of biliary salt ([4]; 3 hours after treatment): 133±18; bile flow ([4]; 4 hours after treatment): 108±8.5; excretion of biliary salt ([4]; 4 hours after treatment): 120±21; bile flow ([4]; 5 hours after treatment): 98±3.8; excretion of biliary salt ([4]; 5 hours after treatment): 86±8.9; Amount of total biliary salts excreted for 5 hours relative to control ([4]; versus control): 1.63 times; Quantity of total excreted bile for 5 hours relative to control ([4]; versus control): 1.15 times
CCOC(=O)C(C(=O)OC(C)C)=C1SCCS1 [Compound 21, Ethyl isopropyl 1,3-dithiolan-2-ylidene malonate] | 64 Karmen units | 0.6 | – | – | – | – | – | 2230 mg/kg | – | Triglyceride in liver [3]: 6.8 ± 1.2 mg/g; p-GPT [3]: 47±21 Karmen unit; Total lipid [6, 7]: 97.8 ± 10.3 mg/g-liver; Triglyceride [6, 7]: 40.6 ± 6.8 mg/g-liver; Total lipid [6, 8]: 70.2 ± 8.3 mg/g-liver; Triglyceride [6, 8]: 24.8 ± 3.2 mg/g-liver
CCOC(=O)C(C(=O)OC(C)CC)=C1SCCS1 (stereo not drawn) [Compound 22] | 67 Karmen units | 0.4 | – | – | – | – | – | – | 11.3 ± 0.96 mg/g | –
CCOC(=O)C(C(=O)SCC)=C1SCCS1 [Compound 26] | 62 Karmen units | 0.6 | 10±3 ppm | 690±102 ppm | 694±86 ppm | 432±96 ppm | 12±8 ppm | – | – | –
CCOC(=O)C(C(=O)OCC)=C1SCC[S+]1[O-] (stereo not drawn) [Compound 30] | 156 Karmen units | 0.8 | – | – | – | – | – | – | 12.6 ± 2.3 mg/g | –
CC(C)OC(=O)C(C(=O)OC(C)C)=C1SCC[S+]1[O-] (stereo not drawn) [Compound 31, 2-(Diisopropoxycarbonyl)methyliden-1,3-dithiolan-1-oxide] | 121 Karmen units | 0.8 | 12±8 ppm | 720±145 ppm | 583±122 ppm | 343±13 ppm | 5±2 ppm | > 6000 mg/kg | – | –
CSCC[C@H](N)C(=O)O [Methionine, methionine, reference compound] | – | – | – | – | – | – | – | – | 13.2 ± 2.1 mg/g | Total lipid [6, 8]: 168.6 ± 21.6 mg/g-liver; Triglyceride [6, 8]: 58.2 ± 9.6 mg/g-liver; Degree of fatty liver (histopathological examination) ([6]; 250 mg/kg oral, 10 days, one symbol per animal): + ± and ++ ++ ++ ±; therapeutic effect on fatty liver ([6]; carbon tetrachloride, in words): hardly exhibited a therapeutic effect
